Experimental data: patent publication US6641811B1, “Use of angiotensin II inhibitors to prevent malignancies associated with immunosuppression” (Cornell Research Foundation, Inc., priority 2000, dated 2003)

Key:
Format in all cases: in vivo
[1] = test system: human bladder cancer cells (T24); assay: Pulmonary metastases of T24 human bladder cancer cells injected via tail vein into SCID-beige mice; settings: for Number of metastases (mean ± SEM), T-24, with Enalapril: enalapril 10 mg/kg intraperitoneal twice a day, alone or with Cyclosporine 20 mg/kg or FK506 4 mg/kg every other day; for Incidence of tumors as compared to controls: summary of Table I (T24 and Renca) and Example 3 (T-24), in the absence of immunosuppressive agent
Experimental: (§1) In vivo tumor growth. Murine renal cell adenocarinoma cells (1×10^5 in Hanks balanced salt solution), murine Lewis lung carcinoma cells (1×10^5 cells), or human bladder cancer cells (1×10^5 cells) are injected via the tail vein into 6-wk old male SCID-beige mice. […] On day 19 or 23 post tumor inoculation, mice are killed and the number of pulmonary metastases is determined […] endotracheal insufflation of lungs with 15% India ink solution and bleaching the harvested lungs in Fekete's solution.
(§2) SCID-beige (immunodeficient) mice were inoculated with human bladder cancer cells (T24) or murine renal cancer cells (Renca). Tumor bearing mice were then treated with cyclosporin A or the angiotensin II receptor blocker, losartan or both.
(§3) Tumor cells (1×10^5 in HBSS) were injected via the tail vein into SCID-beige mice. […] The mice were sacrificed on day 19 (Renca) and day 23 (T24) and the number of metastases was counted as described (reference 7).

pulmonary metastasis = assay: Tumor progression / development of pulmonary metastasis in experimental animals (Example 2)
[2] = test system: murine renal cancer cells (Renca); assay: Pulmonary metastases of Renca murine renal cancer cells injected via tail vein into SCID-beige mice; settings: 1×10^5 Renca cells via tail vein, sacrificed day 19, CsA 20 mg/kg SQ QOD, Losartan 10 mg/kg SQ BID, untreated 125 ± 22
Experimental: as §1, with “solution. The effect of angiotensin II inhibitors and anti-angiotensin II mAbs and the control IgG1 mAbs on CsA-induced increase in the number of pulmonary metastases is determined by intraperitoneal administration of 200 μg of mAbs, on a daily basis starting from day −1 to day 19 post tumor inoculation.” for “solution.”
as §2, §3

[3] = SCID beige mice, 100,000 T-24 cells by tail vein

Row | SMILES | Number of metastases (mean ± SEM), T-24, without Enalapril ([1]; SCID beige mice, 100,000 T-24 cells by tail vein, Cyclosporine 20 mg/kg or FK506 4 mg/kg every other day, no enalapril, untreated 38 ± 4) | Number of metastases (mean ± SEM), T-24, with Enalapril [1, 3] | Effect on development of pulmonary metastasis (pulmonary metastasis) | Incidence of tumors as compared to controls [1] | Number of Pulmonary Metastases (Mean ± SEM), T24 ([1]; SCID-beige mice, 1×10^5 T24 cells via tail vein, sacrificed day 23, CsA 20 mg/kg SQ QOD, Losartan 10 mg/kg SQ BID, untreated 25 ± 7) | Number of Pulmonary Metastases (Mean ± SEM), Renca [2]
1 | C=CC[C@@H]1/C=C(\C)C[C@H](C)C[C@H](OC)[C@H]2O[C@@](O)(C(=O)C(=O)N3CCCC[C@H]3C(=O)O[C@H](/C(C)=C/[C@@H]3CC[C@@H](O)[C@H](OC)C3)[C@H](C)[C@@H](O)CC1=O)[C@H](C)C[C@@H]2OC [FK506] | 72 ± 21 | 30 ± 2 | – | – | – | –
2 | CCOC(=O)[C@H](CCc1ccccc1)N[C@@H](C)C(=O)N1CCC[C@H]1C(=O)O [Enalapril] | – | 21 ± 3 | prevented the development of pulmonary metastasis | reduces the incidence of tumors as compared to controls | – | –
3 | CCCCc1nc(Cl)c(CO)n1Cc1ccc(-c2ccccc2-c2nn[nH]n2)cc1 [Losartan] | – | – | – | reduces the incidence of tumors as compared to controls | 12 ± 3 | 67 ± 15
